Each structure is given as a SMILES string.

Results on four compounds are retold here after ChEMBL document CHEMBL1150722, “Inhibitory effects of various flavonoids isolated from leaves of persimmon on angiotensin-converting enzyme activity” (J Nat Prod, 1987).

Experiment [1] concerns the target T1, Angiotensin-converting enzyme (Rattus norvegicus) (UniProt P47820).
T1 sequence (whole entry): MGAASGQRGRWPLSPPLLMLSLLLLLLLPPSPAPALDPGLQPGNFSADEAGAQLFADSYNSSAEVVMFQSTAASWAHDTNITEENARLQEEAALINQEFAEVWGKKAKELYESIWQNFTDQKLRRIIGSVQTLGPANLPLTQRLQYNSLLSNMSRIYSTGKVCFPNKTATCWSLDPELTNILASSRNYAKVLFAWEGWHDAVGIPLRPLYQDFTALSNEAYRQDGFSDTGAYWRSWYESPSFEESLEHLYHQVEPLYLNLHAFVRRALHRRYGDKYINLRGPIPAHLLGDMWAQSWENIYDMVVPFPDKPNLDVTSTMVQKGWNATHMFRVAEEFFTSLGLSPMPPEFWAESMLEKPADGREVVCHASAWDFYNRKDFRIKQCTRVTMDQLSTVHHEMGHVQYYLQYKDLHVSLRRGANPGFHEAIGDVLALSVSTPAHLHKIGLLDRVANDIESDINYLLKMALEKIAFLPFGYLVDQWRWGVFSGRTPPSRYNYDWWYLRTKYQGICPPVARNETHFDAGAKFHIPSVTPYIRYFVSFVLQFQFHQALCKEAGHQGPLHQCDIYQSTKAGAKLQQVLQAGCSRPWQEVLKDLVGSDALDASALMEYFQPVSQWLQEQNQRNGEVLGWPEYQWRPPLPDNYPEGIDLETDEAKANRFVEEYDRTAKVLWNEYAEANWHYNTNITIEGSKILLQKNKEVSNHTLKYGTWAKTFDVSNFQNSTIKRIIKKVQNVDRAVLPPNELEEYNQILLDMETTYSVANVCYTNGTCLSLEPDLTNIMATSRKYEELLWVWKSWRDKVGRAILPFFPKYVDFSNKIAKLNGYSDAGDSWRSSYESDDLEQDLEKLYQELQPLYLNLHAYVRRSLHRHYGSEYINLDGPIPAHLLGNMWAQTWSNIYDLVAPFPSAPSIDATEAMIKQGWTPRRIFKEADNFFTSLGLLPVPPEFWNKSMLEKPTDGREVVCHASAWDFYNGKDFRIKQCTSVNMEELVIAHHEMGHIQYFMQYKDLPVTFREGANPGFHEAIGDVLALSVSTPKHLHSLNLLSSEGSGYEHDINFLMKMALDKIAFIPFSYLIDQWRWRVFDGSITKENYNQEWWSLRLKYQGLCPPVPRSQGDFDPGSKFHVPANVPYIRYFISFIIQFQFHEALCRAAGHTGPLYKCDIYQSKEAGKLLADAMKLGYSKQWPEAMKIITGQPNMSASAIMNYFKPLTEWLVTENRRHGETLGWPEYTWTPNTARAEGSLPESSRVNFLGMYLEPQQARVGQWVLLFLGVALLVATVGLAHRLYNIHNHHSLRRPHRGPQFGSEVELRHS
The experiment in a line: Inhibition of rat lung ACE at 150 ug/ml relative to control.

Experiment [2] addresses T1, Angiotensin-converting enzyme (Rattus norvegicus). The experiment in a line: Inhibition of rat lung ACE at 225 ug/ml relative to control.
Experiment [3] has the same target. The experiment in a line: Inhibition of rat lung ACE at 300 ug/ml relative to control.
For experiment [4], the target named is T2, Angiotensin-converting enzyme (Rattus norvegicus, UniProt P47820).
T2 sequence (P47820 whole entry): T1 sequence (whole entry)
Nature of the experiment: Inhibition of rat lung ACE.

The target of experiment [5] is T1, Angiotensin-converting enzyme (Rattus norvegicus). Nature of the experiment: Inhibition of rat lung ACE at 38 ug/ml relative to control.
Experiment [6] shares this target. The experiment in a line: Inhibition of rat lung ACE at 56 ug/ml relative to control.
Experiment [7] shares this target. The experiment in a line: Inhibition of rat lung ACE at 75 ug/ml relative to control.
Experiment [8] has the same target. The experiment in a line: Inhibition of rat lung ACE at 113 ug/ml relative to control.

In general, inhibition refers to the share of the control response that was lost under treatment. A low value points to little suppression. For orientation: IC50 means the concentration needed to halve the response being measured. A lower IC50 goes with inhibition by little substance. On to `O=C(O[C@H]1[C@H](Oc2c(-c3ccc(O)cc3)oc3cc(O)cc(O)c3c2=O)O[C@H](CO)[C@@H](O)[C@@H]1O)c1cc(O)c(O)c(O)c1`, for which the inhibition in experiment [1] worked out at 35%; in experiment [2] it was 39%; in experiment [3] it was 53%; in experiment [5] it was 3%; in experiment [6] it was 6%; in experiment [7], 15%. For the same compound, the inhibition in experiment [8] was determined as 35%. This compound gave an IC50 in experiment [4] of 466 µM.
For the compound `O=c1c(O[C@@H]2O[C@H](CO)[C@@H](O)[C@H](O)[C@H]2O)c(-c2ccc(O)cc2)oc2cc(O)cc(O)c12` [ASTRAGALIN], the inhibition in experiment [1] was determined as 53%; in experiment [2], 28%; in experiment [3] it was 67%; in experiment [5] it was 0%; in experiment [6], 2%; in experiment [7], 22%. In addition, the inhibition in experiment [8] came to 31%. This compound also had an IC50 in experiment [4] of 401 µM.
`O=c1c(O[C@@H]2O[C@H](CO)[C@@H](O)[C@H](O)[C@H]2O)c(-c2ccc(O)c(O)c2)oc2cc(O)cc(O)c12`: the inhibition in experiment [1] came out at 19%; in experiment [2] it was 19%; in experiment [5] it was 0%; in experiment [6], 0%; in experiment [7], 9%; in experiment [8], 3%.
As to `O=C(O[C@H]1[C@H](Oc2c(-c3ccc(O)c(O)c3)oc3cc(O)cc(O)c3c2=O)O[C@H](CO)[C@@H](O)[C@@H]1O)c1cc(O)c(O)c(O)c1`, the inhibition in experiment [1] was 39%; in experiment [2], 34%; in experiment [3] it was 48%; in experiment [5], 10%; in experiment [6], 12%; in experiment [7], 18%. Further, the inhibition in experiment [8] was determined as 39%.
